Results: patent US6773733B2, “Structured particulate systems” (Loders Croklaan USA LLC, priority 2001, dated 2004)

Key:
Format in all cases: physicochemical
[1] = Mean weight diameter by screen analysis; settings: weight fraction at screen multiplied by screen opening, summed for all screen sizes
Experimental: Folic acid is used as the active component It has a mean weight diameter of 246 microns and a loose bulk density of 0.2 g/cc. The mean weight diameters is calculated as follows: weight fraction at screen multiplied by screen opening (microns), summed for all screen sizes.

[2] = Comparative homogeneity test in vegetable oil; settings: added to 1 kg of vegetable oil, mixed for 5 minutes, continuous visual inspection
Experimental: Comparative homogeneity test of structured particulate Folic Acid with non-structured active particulate component: 1. 10 milligrams of non-structured active particulate component Folic Acid is added to 1 kg of vegetable oil and 40 milligrams of structured particulate Folic Acid (25%) to another 1 kg of vegetable oil. 2. Each sample is mixed for 5 minutes with continuous visual inspection for homogeneity.

[3] = Loose bulk density
Text: Loose bulk density being measured by measuring the volume of a known mass powder sample, that has passed through a screen into a gradulated cylinder. The procedure is described in USP<616<Bulk Density and Tapped Density.

- mean weight diameter [1]: 246 microns
- loose bulk density [3]: 0.2 g/cc
Structure (SMILES): Nc1nc2ncc(CNc3ccc(C(=O)N[C@@H](CCC(=O)O)C(=O)O)cc3)nc2c(=O)[nH]1 [Folic acid]
- homogeneity / dispersion by visual inspection [2]: clumps together and sticks to the container walls
